Molecules are shown by their SMILES. Like-named read-outs stand apart in the source and are kept apart here. Bounds are passed on as bounds.

One experiment concerns the target hA2a (Homo sapiens (Human), UniProt P29274). Nature of the experiment: Radioligand binding to hA2a membrane with [3H]-CGS21680. As to conditions: read-out: Binding Affinity (IC50 nM) hA2a. An excerpt: (§1) The empty boxes in the tables below indicate data not collected yet.
The target of another experiment is hA2a/CHO (Homo sapiens (Human), UniProt P29274). Nature of the experiment: cAMP inhibition assay in hA2a/CHO cells, 10 μM adenosine.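 Further: compounds added to cells 30 min ahead of adenosine, then a further 30 min at 37 °C with adenosine before cAMP detection.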 It counts as cell-based. The settings on record: read-out: cAMP & FLIPR IC50 (nM) hA2a.
For experiment [1], the target named is hADORA1/CHO (hA1 expressing) cells (Homo sapiens (Human), UniProt P30542). Nature of the experiment: cell-based. As to conditions: 10 μM adenosine.
The next experiment deals with hA2b/CHO (Homo sapiens (Human), UniProt P29275). Nature of the experiment: cAMP inhibition assay in hA2b/CHO cells, 10 μM adenosine.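 Further: cells exposed to compound 30 min at 37 °C, then stimulated with adenosine a further 30 min, cAMP read after 60 min at room temperature.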 It counts as cell-based. The settings on record: read-out: cAMP & FLIPR IC50 (nM) hA2b.
In the next experiment the target is hA1 (Homo sapiens (Human), UniProt P30542). As to conditions: hA1 membrane, [3H]-DPCPX; read-out: Binding Affinity (IC50 nM) hA1.
Excerpt: as §1

In another experiment the target is mA2a/CHO (Mus musculus (Mouse), UniProt Q60613). Kind of experiment: cAMP inhibition assay in mA2a/CHO cells, 10 μM adenosine.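 Further: compounds preincubated 30 min at 37 °C before the adenosine challenge, then 30 min further stimulation, readout after 60 min detection reagent incubation at room temperature in 384-well plates.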 As to conditions: read-out: cAMP & FLIPR IC50 (nM) mA2a. The class given is cell-based.
The target of the next experiment is hA3/CHO (Homo sapiens (Human), UniProt P0DMS8). Kind of experiment: cell-based. How it is done:
hA2a/CHO, hA2b/CHO, hA3/CHO and mA2a/CHO (Genscript) were plated at 5×10^3 cells/well into 384-well polystyrene plates at the day of experiment. Compounds were pre-incubated with cells for 30 min at 37° C., 5% CO2. Then 10 μM adenosine was added to the cells and incubated for 30 min at 37° C., 5% CO2. Detection reagent (CISBIO) was added and the plates were incubated for 60 min at room temperature. The signal was captured by Envision.

Setting [2] is: FLIPR inhibition, read-out: cAMP & FLIPR IC50 (nM) hA1.
The mark [3] stands for this setting: cAMP & FLIPR IC50 (nM) hA1, FLIPR inhibition.

Sequence of hA3/CHO (P0DMS8 whole entry): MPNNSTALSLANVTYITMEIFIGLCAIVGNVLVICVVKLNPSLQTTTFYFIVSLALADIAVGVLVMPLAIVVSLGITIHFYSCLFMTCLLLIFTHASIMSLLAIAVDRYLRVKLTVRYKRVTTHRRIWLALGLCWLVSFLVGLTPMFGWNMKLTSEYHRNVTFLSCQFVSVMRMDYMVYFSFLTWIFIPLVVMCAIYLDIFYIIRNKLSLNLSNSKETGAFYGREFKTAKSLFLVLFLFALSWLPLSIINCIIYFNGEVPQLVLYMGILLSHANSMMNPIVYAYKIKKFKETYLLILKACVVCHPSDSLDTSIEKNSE
Sequence of mA2a/CHO (Q60613 whole entry): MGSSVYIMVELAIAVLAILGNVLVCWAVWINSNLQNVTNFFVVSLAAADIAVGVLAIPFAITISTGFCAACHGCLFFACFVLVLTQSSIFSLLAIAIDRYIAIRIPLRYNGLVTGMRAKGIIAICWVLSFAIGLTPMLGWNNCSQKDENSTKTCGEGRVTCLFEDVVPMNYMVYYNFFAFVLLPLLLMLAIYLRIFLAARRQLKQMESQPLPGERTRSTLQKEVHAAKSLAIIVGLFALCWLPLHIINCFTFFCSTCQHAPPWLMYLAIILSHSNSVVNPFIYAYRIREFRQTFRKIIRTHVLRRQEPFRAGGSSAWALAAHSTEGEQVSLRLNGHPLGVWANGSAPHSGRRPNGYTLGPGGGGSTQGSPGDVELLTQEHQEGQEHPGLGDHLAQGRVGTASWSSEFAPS
Sequence of hA2b/CHO (P29275 whole entry): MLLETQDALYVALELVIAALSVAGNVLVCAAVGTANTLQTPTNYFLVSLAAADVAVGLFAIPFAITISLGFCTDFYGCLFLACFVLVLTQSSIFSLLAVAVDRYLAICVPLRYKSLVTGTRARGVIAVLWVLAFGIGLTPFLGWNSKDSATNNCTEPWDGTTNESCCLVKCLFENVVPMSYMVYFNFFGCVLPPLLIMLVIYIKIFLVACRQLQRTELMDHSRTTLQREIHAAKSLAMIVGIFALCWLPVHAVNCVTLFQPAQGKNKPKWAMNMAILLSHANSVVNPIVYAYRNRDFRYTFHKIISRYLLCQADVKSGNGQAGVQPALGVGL
Sequence of hA2a/CHO (P29274 whole entry): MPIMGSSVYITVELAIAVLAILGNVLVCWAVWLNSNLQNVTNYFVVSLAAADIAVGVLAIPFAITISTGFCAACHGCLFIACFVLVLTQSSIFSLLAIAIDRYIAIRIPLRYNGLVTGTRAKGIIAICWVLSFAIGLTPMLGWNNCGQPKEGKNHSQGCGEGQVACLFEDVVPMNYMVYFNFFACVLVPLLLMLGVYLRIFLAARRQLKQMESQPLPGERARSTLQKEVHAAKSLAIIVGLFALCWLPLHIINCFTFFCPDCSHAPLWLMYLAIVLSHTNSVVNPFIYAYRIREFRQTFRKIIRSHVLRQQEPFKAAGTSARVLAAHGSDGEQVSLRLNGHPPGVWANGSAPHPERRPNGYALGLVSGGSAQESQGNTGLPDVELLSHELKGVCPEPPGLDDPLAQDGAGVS
Sequence of hA2a (P29274 whole entry): as above
Sequence of hA1 (P30542 whole entry): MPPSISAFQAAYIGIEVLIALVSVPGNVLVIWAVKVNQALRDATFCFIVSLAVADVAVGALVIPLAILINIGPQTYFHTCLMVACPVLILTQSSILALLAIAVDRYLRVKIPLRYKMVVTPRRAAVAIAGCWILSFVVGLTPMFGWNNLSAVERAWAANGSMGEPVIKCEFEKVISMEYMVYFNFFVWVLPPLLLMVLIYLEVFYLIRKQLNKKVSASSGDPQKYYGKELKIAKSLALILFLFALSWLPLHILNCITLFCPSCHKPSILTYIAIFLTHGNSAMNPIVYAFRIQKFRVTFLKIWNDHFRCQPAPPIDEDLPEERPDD
Sequence of hADORA1/CHO (hA1 expressing) cells (P30542 whole entry): as above

As for `COCCNC(=O)c1nc(-c2ccc3ncc(C)n3c2)c(-c2ncco2)nc1N` [Example 147, 3-amino-N-(2-methoxyethyl)-6-(3-methylimidazo[1,2-a]pyridin-6-yl)-5-(oxazol-2-yl)pyrazine-2-carboxamide], the IC50 on hA2a came to 5.6 nM; at hA2a/CHO, 3.8 nM; in experiment [1] (setting [2]), 2380 nM; on hA2b/CHO it was 134 nM; on hA1, 108 nM; on mA2a/CHO, 15 nM.

For `Cc1cnc2ccc(-c3nc(C(=O)NC(C)C)c(N)nc3-c3ncco3)cn12` [Example 133, 3-amino-N-isopropyl-6-(3-methyl-imidazo[1,2-a]pyridin-6-yl)-5-(oxazol-2-yl)pyrazine-2-carboxamide], the IC50 at hA2a turned out to be 2.7 nM; at hA2a/CHO, 5.9 nM; in experiment [1] (setting [3]), 10000 nM; on hA2b/CHO it was 554 nM; on hA1 it was 271 nM; on mA2a/CHO, 19 nM.

For the molecule `Nc1nc(-c2ncco2)c(-c2ccc3nncn3c2)nc1C(=O)NCc1c(F)cccc1F` [Example 34, 6-([1,2,4]triazolo[4,3-a]pyridin-6-yl)-3-amino-N-(2,6-difluorobenzyl)-5-(oxazol-2-yl)pyrazine-2-carboxamide], the IC50 on hA2a is 3.7 nM; at hA2a/CHO, 63 nM; against hA3/CHO, no less than 10 µM; in experiment [1] (setting [2]) it was 10000 nM; at hA2b/CHO, 330 nM; at mA2a/CHO, 192 nM.

In the case of `Cc1cnc2ccc(-c3nc(C(=O)NCc4ncccc4F)c(N)nc3-c3ncco3)cn12` [Example 101, 3-amino-N-((3-fluoropyridin-2-yl)methyl)-6-(3-methylimidazo[1,2-a]pyridin-6-yl)-5-(oxazol-2-yl)pyrazine-2-carboxamide], the figures for the IC50 (in experiment [1] (setting [2]); on hA1) were 45 nM and 5.6 nM, respectively.

Turning to `Cc1scnc1CNC(=O)c1nc(-c2ccc(=O)n(C)c2)c(-c2ncco2)nc1N` [Example 22, 3-amino-6-(1-methyl-6-oxo-1,6-dihydropyridin-3-yl)-N-((5-methylthiazol-4-yl)methyl)-5-(oxazol-2-yl)pyrazine-2-carboxamide], the IC50 on hA2a was 3.5 nM; at hA2a/CHO, 60 nM; at hA3/CHO, no less than 10 µM; in experiment [1] (setting [2]) it was 3380 nM; on hA2b/CHO, 2550 nM; at mA2a/CHO it was 132 nM.

In the case of `Cc1cnc2ccc(-c3nc(C(=O)NC[C@H]4CCOC4)c(N)nc3-c3ncco3)cn12` [Example 136, (R)-3-amino-6-(3-methylimidazo[1,2-a]pyridin-6-yl)-5-(oxazol-2-yl)-N-((tetrahydrofuran-3-yl)methyl)pyrazine-2-carboxamide], the IC50 on hA2a came out at 1.7 nM; on hA2a/CHO it was 1.8 nM; in experiment [1] (setting [3]), 10000 nM; at hA2b/CHO, 512 nM; on hA1, 182 nM; on mA2a/CHO, 27 nM.

With `CN(C)c1cccnc1CNC(=O)c1nc(-c2ccc(=O)n(C)c2)c(-c2ncco2)nc1N` [Example 16, 3-amino-N-((3-(dimethylamino)pyridin-2-yl)methyl)-6-(1-methyl-6-oxo-1,6-dihydropyridin-3-yl)-5-(oxazol-2-yl)pyrazine-2-carboxamide], the IC50 stood at 3.9 nM on hA2a; 5.3 nM at hA2a/CHO; 32 nM in experiment [1] (setting [2]); 336 nM on hA2b/CHO; 15 nM at hA1; 8.3 nM at mA2a/CHO.

As to `Cn1cc(-c2nc(C(=O)NCc3nc(N)ccc3F)c(N)nc2-c2ncco2)ccc1=O` [Example 49, 3-amino-N-((6-amino-3-fluoropyridin-2-yl)methyl)-6-(1-methyl-6-oxo-1,6-dihydropyridin-3-yl)-5-(oxazol-2-yl)pyrazine-2-carboxamide], the IC50 in experiment [1] (setting [3]) is 1710 nM; at hA1 it was 117 nM.

Take `Cn1cc(-c2nc(C(=O)NCc3c(F)cccc3F)c(N)nc2-c2ccc(F)cc2)ccc1=O` [Example 29, 3-amino-N-[(2,6-difluorophenyl)methyl]-5-(4-fluorophenyl)-6-(1-methyl-6-oxo-1,6-dihydropyridin-3-yl)pyrazine-2-carboxamide]: the IC50 is 2.3 nM on hA2a; 6.8 nM at hA2a/CHO; no less than 10 µM on hA3/CHO; 66 nM in experiment [1] (setting [2]); 103 nM on hA2b/CHO; 60 nM at mA2a/CHO.

Consider `Cn1cc(-c2nc(C(=O)NC(CO)c3c(F)cccc3F)c(N)nc2-c2ncco2)ccc1=O` (centres unmarked) [Example 98, 3-amino-N-(1-(2,6-difluorophenyl)-2-hydroxyethyl)-6-(1-methyl-6-oxo-1,6-dihydropyridin-3-yl)-5-(oxazol-2-yl) pyrazine-2-carboxamide], for which the IC50 was 9.3 nM on hA2a; 21 nM on hA2a/CHO; 70 nM in experiment [1] (setting [3]); 126 nM on hA2b/CHO; 10 nM at hA1; 64 nM on mA2a/CHO.

For the molecule `Cn1cc(-c2nc(C(=O)NCc3cccc(N)n3)c(N)nc2-c2ncco2)ccc1=O` [Example 24, 3-amino-N-[(6-aminopyridin-2-yl)methyl]-6-(1-methyl-6-oxo-1,6-dihydropyridin-3-yl)-5-(1,3-oxazol-2-yl)pyrazine-2-carboxamide], the IC50 on hA2a is 11 nM; at hA2a/CHO it was 199 nM; against hA3/CHO, no less than 10 µM; in experiment [1] (setting [2]), 9360 nM; on hA2b/CHO it was 1460 nM; at mA2a/CHO, 641 nM.

On to `COc1ccccc1CNC(=O)c1nc(-c2cc(C)nc(C)c2)c(-c2ccc(C)o2)nc1N` [Example 61, 3-amino-6-(2,6-dimethylpyridin-4-yl)-N-(2-methoxybenzyl)-5-(5-methylfuran-2-yl)pyrazine-2-carboxamide], for which the IC50 at hA2a was 7.9 nM; on hA2a/CHO it was 0.6 nM; at hA2b/CHO, no less than 10000 nM; on hA1, 52 nM; at mA2a/CHO, 6 nM.

In the case of `Cn1cc(-c2nc(C(=O)NCc3c(F)cccc3F)c(N)nc2-n2nccn2)ccc1=O` [Example 35, 3-amino-N-(2,6-difluorobenzyl)-6-(1-methyl-6-oxo-1,6-dihydropyridin-3-yl)-5-(2H-1,2,3-triazol-2-yl)pyrazine-2-carboxamide], the IC50 at hA2a was 3.2 nM; on hA2a/CHO, 15 nM; against hA3/CHO, no less than 10 µM; in experiment [1] (setting [2]), 112 nM; on hA2b/CHO, 203 nM; on mA2a/CHO, 43 nM.

In the case of `Nc1nc(-c2ncco2)c(-c2ccc3[nH]cnc3c2)nc1C(=O)NCc1ncccc1F` [Example 47, 3-amino-6-(1H-1,3-benzodiazol-5-yl)-N-[(3-fluoropyridin-2-yl)methyl]-5-(1,3-oxazol-2-yl)pyrazine-2-carboxamide], the IC50 in experiment [1] (setting [3]) is 10000 nM; at hA1, 696 nM.

As for `Cn1cc(-c2nc(C(=O)NCc3ncccc3F)c(N)nc2-c2ncco2)ccc1=O` [Example 14, 3-amino-N-((3-fluoropyridin-2-yl)methyl)-6-(1-methyl-6-oxo-1,6-dihydropyridin-3-yl)-5-(oxazol-2-yl)pyrazine-2-carboxamide], the IC50 is 3.1 nM on hA2a; 98 nM at hA2a/CHO; no less than 10 µM against hA3/CHO; 10000 nM in experiment [1] (setting [2]); 768 nM at hA2b/CHO; 213 nM on mA2a/CHO.
